Assay results published in ChEMBL document CHEMBL1138574, “Regioselective synthesis and stereochemical structure of anti-tumor active dispiro[3H-indole-3,2'-pyrrolidine-3',3''-piperidine]-2(1H),4''-diones” (2009).

Tests used:
Type in all cases: functional
A549 = assay: Antitumor activity against human A549 cells assessed as cell growth at 10 uM after 48 hrs by sulforhodamine B assay; conditions: A549, 48 h, read-out: Activity
HOP-62 = assay: Antitumor activity against human HOP62 cells assessed as cell growth at 10 uM after 48 hrs by sulforhodamine B assay; conditions: HOP-62, 48 h, read-out: Activity
NCI-H226 = assay: Antitumor activity against human NCI-H226 cells assessed as cell growth at 10 uM after 48 hrs by sulforhodamine B assay; conditions: NCI-H226, 48 h, read-out: Activity
NCI-H23 = assay: Antitumor activity against human NCI-H23 cells assessed as cell growth at 10 uM after 48 hrs by sulforhodamine B assay; conditions: NCI-H23, 48 h, read-out: Activity
NCI-H322M = assay: Antitumor activity against human NCI-H322M cells assessed as cell growth at 10 uM after 48 hrs by sulforhodamine B assay; conditions: read-out: Activity
NCI-H460 = assay: Antitumor activity against human NCI-H460 cells assessed as cell growth at 10 uM after 48 hrs by sulforhodamine B assay; conditions: NCI-H460, 48 h, read-out: Activity
COLO 205 = assay: Antitumor activity against human COLO205 cells assessed as cell growth at 10 uM after 48 hrs by sulforhodamine B assay; conditions: COLO 205, 48 h, read-out: Activity
HCT-116 = assay: Antitumor activity against human HCT116 cells assessed as cell growth at 10 uM after 48 hrs by sulforhodamine B assay; conditions: HCT-116, 48 h, read-out: Activity
HCT-15 = assay: Antitumor activity against human HCT15 cells assessed as cell growth at 10 uM after 48 hrs by sulforhodamine B assay; conditions: HCT-15, 48 h, read-out: Activity
SW-620 = assay: Antitumor activity against human SW620 cells assessed as cell growth at 10 uM after 48 hrs by sulforhodamine B assay; conditions: SW-620, 48 h, read-out: Activity
[1] = Antitumor activity against human Hs 578T cells assessed as cell growth at 10 uM after 48 hrs by sulforhodamine B assay; conditions: read-out: Activity
MDA-MB-231 = assay: Antitumor activity against human MDA-MB-231 cells assessed as cell growth at 10 uM after 48 hrs by sulforhodamine B assay; conditions: MDA-MB-231, 48 h, read-out: Activity
MDA-MB-468 = assay: Antitumor activity against human MDA-MB-468 cells assessed as cell growth at 10 uM after 48 hrs by sulforhodamine B assay; conditions: MDA-MB-468, 48 h, read-out: Activity
T47D = assay: Antitumor activity against human T47D cells assessed as cell growth at 10 uM after 48 hrs by sulforhodamine B assay; conditions: read-out: Activity
OVCAR-4 = assay: Antitumor activity against human OVCAR4 cells assessed as cell growth at 10 uM after 48 hrs by sulforhodamine B assay; conditions: OVCAR-4, 48 h, read-out: Activity
OVCAR-8 = assay: Antitumor activity against human OVCAR8 cells assessed as cell growth at 10 uM after 48 hrs by sulforhodamine B assay; conditions: OVCAR-8, 48 h, read-out: Activity
SK-OV-3 = assay: Antitumor activity against human SKOV3 cells assessed as cell growth at 10 uM after 48 hrs by sulforhodamine B assay; conditions: SK-OV-3, 48 h, read-out: Activity
K562 = assay: Antitumor activity against human K562 cells assessed as cell growth at 10 uM after 48 hrs by sulforhodamine B assay; conditions: K562, 48 h, read-out: Activity
SR = assay: Antitumor activity against human SR cells assessed as cell growth at 10 uM after 48 hrs by sulforhodamine B assay; conditions: read-out: Activity
A498 = assay: Antitumor activity against human A498 cells assessed as cell growth at 10 uM after 48 hrs by sulforhodamine B assay; conditions: A498, 48 h, read-out: Activity
ACHN = assay: Antitumor activity against human ACHN cells assessed as cell growth at 10 uM after 48 hrs by sulforhodamine B assay; conditions: read-out: Activity
CAKI-1 = assay: Antitumor activity against human Caki1 cells assessed as cell growth at 10 uM after 48 hrs by sulforhodamine B assay; conditions: CAKI-1, 48 h, read-out: Activity
RXF 393 = assay: Antitumor activity against human RXF393 cells assessed as cell growth at 10 uM after 48 hrs by sulforhodamine B assay; conditions: RXF 393, 48 h, read-out: Activity
TK-10 = assay: Antitumor activity against human TK10 cells assessed as cell growth at 10 uM after 48 hrs by sulforhodamine B assay; conditions: TK-10, 48 h, read-out: Activity
UO-31 = assay: Antitumor activity against human UO31 cells assessed as cell growth at 10 uM after 48 hrs by sulforhodamine B assay; conditions: UO-31, 48 h, read-out: Activity
UACC-62 = assay: Antitumor activity against human UACC62 cells assessed as cell growth at 10 uM after 48 hrs by sulforhodamine B assay; conditions: UACC-62, 48 h, read-out: Activity
DU-145 = assay: Antitumor activity against human DU145 cells assessed as cell growth at 10 uM after 48 hrs by sulforhodamine B assay; conditions: DU-145, 48 h, read-out: Activity
PC-3 = assay: Antitumor activity against human PC3 cells assessed as cell growth at 10 uM after 48 hrs by sulforhodamine B assay; conditions: PC-3, 48 h, read-out: Activity
SF-268 = assay: Antitumor activity against human SF268 cells assessed as cell growth at 10 uM after 48 hrs by sulforhodamine B assay; conditions: SF-268, 48 h, read-out: Activity
SNB-75 = assay: Antitumor activity against human SNB75 cells assessed as cell growth at 10 uM after 48 hrs by sulforhodamine B assay; conditions: SNB-75, 48 h, read-out: Activity
U-251 = assay: Antitumor activity against human U251 cells assessed as cell growth at 10 uM after 48 hrs by sulforhodamine B assay; conditions: U-251, 48 h, read-out: Activity
Rattus norvegicus [2] = assay: Antiinflammatory activity in Wister albino rat assessed as inhibition of carrageenan-induced paw oedema at 50 mg/kg, ip administered 1 hr before carrageenan challenge measured after 2 hrs of induction of inflammation relative to control; conditions: route intraperitoneal
Rattus norvegicus [3] = assay: Antiinflammatory activity in Wister albino rat assessed as inhibition of carrageenan-induced paw oedema at 50 mg/kg, ip administered 1 hr before carrageenan challenge measured after 3 hrs of induction of inflammation relative to control; conditions: route intraperitoneal
Rattus norvegicus [4] = assay: Antiinflammatory activity in Wister albino rat assessed as inhibition of carrageenan-induced paw oedema at 50 mg/kg, ip administered 1 hr before carrageenan challenge measured after 4 hrs of induction of inflammation relative to control; conditions: route intraperitoneal
Rattus norvegicus [5] = assay: Antiinflammatory activity in Wister albino rat assessed as inhibition of carrageenan-induced paw oedema at 50 mg/kg, ip administered 1 hr before carrageenan challenge measured after 24 hrs of induction of inflammation relative to control; conditions: route intraperitoneal
Rattus norvegicus [6] = assay: Antiinflammatory activity in Wister albino rat assessed as inhibition of carrageenan-induced paw oedema at 50 mg/kg, ip administered 1 hr before carrageenan challenge measured after 4 hrs of induction of inflammation relative to indomethacin; conditions: route intraperitoneal

Structure (SMILES) | growth at 10 µM (A549) [%] | growth at 10 µM (HOP-62) [%] | growth at 10 µM (NCI-H226) [%] | growth at 10 µM (NCI-H23) [%] | growth at 10 µM (NCI-H322M) [%] | growth at 10 µM (NCI-H460) [%] | growth at 10 µM (COLO 205) [%] | growth at 10 µM (HCT-116) [%] | growth at 10 µM (HCT-15) [%] | growth at 10 µM (SW-620) [%] | growth at 10 µM [1] [%] | growth at 10 µM (MDA-MB-231) [%] | growth at 10 µM (MDA-MB-468) [%] | growth at 10 µM (T47D) [%] | growth at 10 µM (OVCAR-4) [%] | growth at 10 µM (OVCAR-8) [%] | growth at 10 µM (SK-OV-3) [%] | growth at 10 µM (K562) [%] | growth at 10 µM (SR) [%] | growth at 10 µM (A498) [%] | also measured
CN1C/C(=C\c2ccc(Cl)cc2)C(=O)[C@]2(C1)[C@@H](c1ccc(Cl)cc1)CN(C)[C@@]21C(=O)Nc2ccccc21 | 62.4 | 73.6 | 64.4 | 44.8 | 68.7 | 66.7 | 92.7 | 45.9 | 68.5 | 57.7 | 79.7 | 74.9 | 56.6 | 46.1 | 49.6 | 69.4 | 80.6 | 45.1 | 67.5 | 55.3 | growth at 10 µM (ACHN): 63.6%; growth at 10 µM (CAKI-1): 45.8%; growth at 10 µM (RXF 393): 67.5%; growth at 10 µM (TK-10): 88.6%; growth at 10 µM (UO-31): 43.2%; growth at 10 µM (UACC-62): 67.2%; growth at 10 µM (DU-145): 83.8%; growth at 10 µM (PC-3): 24.9%; growth at 10 µM (SF-268): 60.6%; growth at 10 µM (SNB-75): 56.7%; growth at 10 µM (U-251): 64.8%; inhibition in vivo at 50 mg/kg (Rattus norvegicus [2]): 63%; inhibition in vivo at 50 mg/kg (Rattus norvegicus [3]): 49.6%; inhibition in vivo at 50 mg/kg (Rattus norvegicus [4]): 42.2%; inhibition in vivo at 50 mg/kg (Rattus norvegicus [5]): 38.2%; inhibition in vivo at 50 mg/kg (Rattus norvegicus [6]): 74.7%
COc1ccc(/C=C2\CN(C)C[C@@]3(C2=O)[C@@H](c2ccccc2)CN(C)[C@@]32C(=O)Nc3ccccc32)cc1 | 44.4 | 69.9 | 63 | 50.4 | 79.7 | 52.3 | 67.4 | 26.8 | 50.8 | 47.8 | 74.7 | 59.4 | 58.9 | 31.6 | 52.7 | 52.4 | 75.6 | 73.3 | 52.3 | 32.5 | growth at 10 µM (ACHN): 49.1%; growth at 10 µM (CAKI-1): 54.3%; growth at 10 µM (RXF 393): 57.8%; growth at 10 µM (TK-10): 73.1%; growth at 10 µM (UO-31): 40.4%; growth at 10 µM (UACC-62): 47.8%; growth at 10 µM (DU-145): 70.3%; growth at 10 µM (PC-3): 21%; growth at 10 µM (SF-268): 61.8%; growth at 10 µM (SNB-75): 59.4%; growth at 10 µM (U-251): 52.1%; inhibition in vivo at 50 mg/kg (Rattus norvegicus [2]): 76.4%; inhibition in vivo at 50 mg/kg (Rattus norvegicus [3]): 76.5%; inhibition in vivo at 50 mg/kg (Rattus norvegicus [4]): 78.7%; inhibition in vivo at 50 mg/kg (Rattus norvegicus [5]): 52.9%; inhibition in vivo at 50 mg/kg (Rattus norvegicus [6]): 139%
CN1C/C(=C\c2ccc(-c3cccs3)cc2)C(=O)[C@]2(C1)[C@@H](c1ccc(-c3cccs3)cc1)CN(C)[C@@]21C(=O)N(C)c2ccccc21 | 58 | 58.8 | 58 | 26.1 | 75 | 52.1 | 69 | 30.6 | 62.1 | 53.8 | 79.3 | 52.4 | 33.4 | 22.7 | 37.3 | 65.7 | 59.5 | 59.5 | 30.5 | 46.5 | growth at 10 µM (ACHN): 56.5%; growth at 10 µM (CAKI-1): 57.2%; growth at 10 µM (RXF 393): 55.6%; growth at 10 µM (TK-10): 78.8%; growth at 10 µM (UO-31): 45.4%; growth at 10 µM (UACC-62): 47.6%; growth at 10 µM (DU-145): 67.4%; growth at 10 µM (PC-3): 17.8%; growth at 10 µM (SF-268): 72.4%; growth at 10 µM (SNB-75): 64.5%; growth at 10 µM (U-251): 62.8%; inhibition in vivo at 50 mg/kg (Rattus norvegicus [2]): 68.3%; inhibition in vivo at 50 mg/kg (Rattus norvegicus [3]): 73.9%; inhibition in vivo at 50 mg/kg (Rattus norvegicus [4]): 69.8%; inhibition in vivo at 50 mg/kg (Rattus norvegicus [5]): 74.3%; inhibition in vivo at 50 mg/kg (Rattus norvegicus [6]): 124%
CN1C/C(=C\c2ccc(Cl)cc2)C(=O)[C@]2(C1)[C@@H](c1ccc(Cl)cc1)CN(C)[C@@]21C(=O)N(C)c2ccccc21 | 70 | 71 | 58.6 | 33.9 | 79.1 | 71.5 | 99.6 | 29.9 | 76.2 | 68.1 | 97.3 | 70.4 | 66.9 | 46.7 | 43.1 | 79.5 | 85.2 | 30.4 | 70.3 | 69.4 | growth at 10 µM (ACHN): 57.5%; growth at 10 µM (CAKI-1): 56.6%; growth at 10 µM (RXF 393): 67.2%; growth at 10 µM (TK-10): 81.8%; growth at 10 µM (UO-31): 56.6%; growth at 10 µM (UACC-62): 59.9%; growth at 10 µM (DU-145): 88.4%; growth at 10 µM (PC-3): 32.5%; growth at 10 µM (SF-268): 83.6%; growth at 10 µM (SNB-75): 65.2%; growth at 10 µM (U-251): 68.6%; inhibition in vivo at 50 mg/kg (Rattus norvegicus [2]): 62.2%; inhibition in vivo at 50 mg/kg (Rattus norvegicus [3]): 44.5%; inhibition in vivo at 50 mg/kg (Rattus norvegicus [4]): 45.7%; inhibition in vivo at 50 mg/kg (Rattus norvegicus [5]): 49.3%; inhibition in vivo at 50 mg/kg (Rattus norvegicus [6]): 80.9%
